Measured values: paper PMC7180638, “Synthesis of Pyrrolidine Monocyclic Analogues of Pochonicine and Its Stereoisomers: Pursuit of Simplified Structures and Potent β-N-Acetylhexosaminidase Inhibition” (Molecules, 2020)
Structures can show the parent of a compound that is named as a salt. Where two headings read alike, the source gives them in different places.

Experiments:
Type in all cases: biochemical
[1] = biological target: T1, α-Glucosidase (Rice) (Oryza sativa subsp. japonica, UniProt Q653V7); experiment: α-Glucosidase (rice) inhibition
T1 construct: purchased Sigma-Aldrich Chemical Co
T1 sequence (Q653V7 34-885): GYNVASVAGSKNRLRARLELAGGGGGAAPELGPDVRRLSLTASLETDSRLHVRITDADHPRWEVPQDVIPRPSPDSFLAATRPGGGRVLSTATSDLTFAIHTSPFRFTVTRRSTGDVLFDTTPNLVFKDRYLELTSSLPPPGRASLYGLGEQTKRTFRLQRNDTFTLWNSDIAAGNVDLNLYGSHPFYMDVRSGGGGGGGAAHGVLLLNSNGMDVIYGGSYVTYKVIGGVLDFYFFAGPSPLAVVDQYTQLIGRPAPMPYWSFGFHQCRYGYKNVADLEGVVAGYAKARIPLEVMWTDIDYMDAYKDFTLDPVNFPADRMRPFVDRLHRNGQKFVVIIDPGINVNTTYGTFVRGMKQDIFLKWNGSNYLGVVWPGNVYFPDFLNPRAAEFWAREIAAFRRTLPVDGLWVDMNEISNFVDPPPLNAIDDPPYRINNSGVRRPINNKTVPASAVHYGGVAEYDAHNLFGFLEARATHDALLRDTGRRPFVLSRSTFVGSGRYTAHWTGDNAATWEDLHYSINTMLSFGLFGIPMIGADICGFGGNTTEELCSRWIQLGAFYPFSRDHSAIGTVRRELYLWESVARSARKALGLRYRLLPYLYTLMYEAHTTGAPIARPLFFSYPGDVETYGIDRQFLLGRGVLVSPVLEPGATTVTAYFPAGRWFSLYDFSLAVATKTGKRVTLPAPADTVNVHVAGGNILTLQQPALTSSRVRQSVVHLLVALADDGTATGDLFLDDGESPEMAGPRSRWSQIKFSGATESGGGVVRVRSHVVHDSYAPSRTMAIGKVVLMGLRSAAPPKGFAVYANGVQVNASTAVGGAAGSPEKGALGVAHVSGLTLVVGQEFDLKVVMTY
Protocol: (§1) With rat intestinal maltase as an exception, other enzymes were purchased from Sigma-Aldrich Chemical Co. (St. Louis, MO, USA). Brush border membranes prepared from rat small intestine according to the method of Kessler et al. were assayed at pH 6.8 for rat intestinal maltase using maltose. The released D-glucose was determined colorimetrically using the Glucose CII-test Wako (Wako Pure Chemical Ind.; Osaka, Japan). Other glycosidase activities were determined using an appropriate p-nitrophenyl glycoside as substrate in a buffer solution at the optimal pH value of each enzyme. The reaction was stopped by adding 400 mM Na2CO3. The released p-nitrophenol was measured spectrometrically at 400 nm.

[2] = biological target: T2, α-Mannosidase (Jack bean) (Canavalia ensiformis, UniProt C0HJB3); experiment: α-Mannosidase (Jack bean) inhibition
T2 construct: purchased Sigma-Aldrich Chemical Co
T2 sequence (C0HJB3 1-981): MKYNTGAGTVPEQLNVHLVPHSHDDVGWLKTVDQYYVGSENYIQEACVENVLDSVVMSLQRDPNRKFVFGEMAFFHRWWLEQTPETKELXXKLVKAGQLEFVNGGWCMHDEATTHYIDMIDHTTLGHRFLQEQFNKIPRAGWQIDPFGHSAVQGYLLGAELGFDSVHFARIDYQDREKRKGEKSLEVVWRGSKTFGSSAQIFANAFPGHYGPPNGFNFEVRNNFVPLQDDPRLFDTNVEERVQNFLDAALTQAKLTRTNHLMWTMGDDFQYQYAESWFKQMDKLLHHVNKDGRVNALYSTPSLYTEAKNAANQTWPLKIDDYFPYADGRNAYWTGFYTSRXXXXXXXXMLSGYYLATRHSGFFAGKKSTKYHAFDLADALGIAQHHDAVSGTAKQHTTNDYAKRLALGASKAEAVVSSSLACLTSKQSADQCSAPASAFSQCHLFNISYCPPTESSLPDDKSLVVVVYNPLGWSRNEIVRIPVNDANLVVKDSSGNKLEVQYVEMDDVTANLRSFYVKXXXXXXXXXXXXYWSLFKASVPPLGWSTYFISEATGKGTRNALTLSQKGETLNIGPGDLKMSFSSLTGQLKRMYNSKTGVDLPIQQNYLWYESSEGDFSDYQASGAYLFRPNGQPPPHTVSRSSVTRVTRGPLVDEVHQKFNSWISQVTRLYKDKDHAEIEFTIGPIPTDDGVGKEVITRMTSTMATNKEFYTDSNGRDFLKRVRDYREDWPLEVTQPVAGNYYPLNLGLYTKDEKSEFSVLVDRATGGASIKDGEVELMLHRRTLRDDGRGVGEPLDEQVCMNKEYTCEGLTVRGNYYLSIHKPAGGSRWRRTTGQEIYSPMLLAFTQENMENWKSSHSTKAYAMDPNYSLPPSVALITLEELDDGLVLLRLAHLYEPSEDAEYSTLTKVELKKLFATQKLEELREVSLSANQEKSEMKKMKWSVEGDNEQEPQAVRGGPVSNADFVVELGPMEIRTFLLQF
Protocol: as §1

[3] = biological target: T3, α-N-Acetylgalactosaminidase (Chicken liver) (Gallus gallus, UniProt Q90744); experiment: α-N-Acetylgalactosaminidase (chicken liver) inhibition
T3 construct: purchased Sigma-Aldrich Chemical Co; host or cells: chicken liver
T3 sequence (Q90744 1-405): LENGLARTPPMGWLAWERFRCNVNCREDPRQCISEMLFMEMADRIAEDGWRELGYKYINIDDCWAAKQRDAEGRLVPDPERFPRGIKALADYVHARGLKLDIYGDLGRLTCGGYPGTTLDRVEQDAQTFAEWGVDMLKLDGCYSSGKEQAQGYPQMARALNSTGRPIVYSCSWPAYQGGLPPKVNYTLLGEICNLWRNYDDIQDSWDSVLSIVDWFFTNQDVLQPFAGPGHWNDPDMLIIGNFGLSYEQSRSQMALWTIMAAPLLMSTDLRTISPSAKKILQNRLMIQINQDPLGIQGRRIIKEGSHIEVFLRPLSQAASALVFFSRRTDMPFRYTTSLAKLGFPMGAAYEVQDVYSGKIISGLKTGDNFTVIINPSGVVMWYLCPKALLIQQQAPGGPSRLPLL
Protocol: as §1

[4] = biological target: Rat intestinal maltase; experiment: Rat intestinal maltase inhibition; details: α-Glucosidase
Protocol: as §1

[5] = biological target: β-Glucosidase (Bovine liver); experiment: β-Glucosidase (bovine liver) inhibition
Protocol: as §1

[6] = biological target: β-N-Acetylhexosaminidase (HL60); experiment: β-N-Acetylhexosaminidase (HL60) inhibition; details: for IC50: β-N-Acetylhexosaminidase (β-GlcNAcase); for Inhibition % at 1000 μM: β-N-Acetylhexosaminidase
Protocol: as §1

[7] = biological target: β-Mannosidase (Snail); experiment: β-Mannosidase (snail) inhibition
Protocol: as §1

[8] = biological target: T4, β-Galactosidase (Bovine liver) (Bos taurus, UniProt F1MNT6); experiment: β-Galactosidase (bovine liver) inhibition
T4 sequence (F1MNT6 1-469): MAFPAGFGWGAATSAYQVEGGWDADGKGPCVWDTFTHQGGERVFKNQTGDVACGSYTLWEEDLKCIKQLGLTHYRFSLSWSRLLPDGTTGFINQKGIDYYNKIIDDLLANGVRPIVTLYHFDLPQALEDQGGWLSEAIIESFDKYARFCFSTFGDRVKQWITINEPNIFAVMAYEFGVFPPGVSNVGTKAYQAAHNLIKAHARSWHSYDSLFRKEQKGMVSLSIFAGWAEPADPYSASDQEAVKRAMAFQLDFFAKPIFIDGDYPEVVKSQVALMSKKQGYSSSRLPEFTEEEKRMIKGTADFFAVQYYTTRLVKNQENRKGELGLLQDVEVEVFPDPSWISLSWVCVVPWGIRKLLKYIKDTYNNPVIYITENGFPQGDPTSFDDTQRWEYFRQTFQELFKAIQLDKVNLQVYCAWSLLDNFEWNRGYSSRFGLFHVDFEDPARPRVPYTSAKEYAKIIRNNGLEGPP
Protocol: as §1

[9] = 1000 μM, read-out: Inhibition % at 1000 μM

CC(=O)NC[C@H]1N[C@H](CO)[C@@H](O)[C@@H]1O [4·HCl, 1-N-acetylamino-2,5-imino-1,2,5-trideoxy-D-mannitol hydrochloride]
IC50 [1]: 1000 µM | inhibition at 1000 µM [2, 9]: 0% | inhibition at 1000 µM ([2]; read-out: IC50): < 50% | inhibition at 1000 µM [3, 9]: 3.3% | inhibition at 1000 µM ([3]; read-out: IC50): < 50% | IC50 ([4]; read-out: IC50): 211 µM | IC50 [5]: NI (No Inhibition (less than 50% at 1000 μM)) | Inhibition % at 1000 μM [5]: 33.8% | IC50 ([6]; read-out: IC50): 34 µM | IC50 ([7]; read-out: IC50): 296 µM

CC(=O)NC[C@@H]1N[C@@H](CO)[C@H](O)[C@H]1O [A-10, 1-N-acetylamino-2,5-imino-1,2,5-trideoxy-L-mannitol hydrochloride]
IC50 [1]: 568 µM | inhibition at 1000 µM [2, 9]: 0% | inhibition at 1000 µM ([2]; read-out: IC50): < 50% | inhibition at 1000 µM [8, 9]: 1.6% | inhibition at 1000 µM ([8]; read-out: IC50): < 50% | inhibition at 1000 µM [3, 9]: 0% | inhibition at 1000 µM ([3]; read-out: IC50): < 50% | IC50 ([4]; read-out: IC50): 92 µM | IC50 [5]: NI (No Inhibition (less than 50% at 1000 μM)) | Inhibition % at 1000 μM [5]: 2.0% | IC50 [6]: NI (No Inhibition (less than 50% at 1000 μM)) | Inhibition % at 1000 μM [6]: 12.7% | IC50 [7]: NI (No Inhibition (less than 50% at 1000 μM)) | Inhibition % at 1000 μM [7]: 0%

CC(=O)NC[C@@H]1N[C@@H](CO)[C@@H](O)[C@H]1O [C-10, 1-N-acetylamino-2,5-imino-1,2,5-trideoxy-L-altritol hydrochloride]
inhibition at 1000 µM [1, 9]: 18.2% | inhibition at 1000 µM ([1]; read-out: IC50): < 50% | inhibition at 1000 µM [2, 9]: 0.4% | inhibition at 1000 µM ([2]; read-out: IC50): < 50% | inhibition at 1000 µM [8, 9]: 1.3% | inhibition at 1000 µM ([8]; read-out: IC50): < 50% | inhibition at 1000 µM [3, 9]: 6.1% | inhibition at 1000 µM ([3]; read-out: IC50): < 50% | IC50 [4]: NI (No Inhibition (less than 50% at 1000 μM)) | Inhibition % at 1000 μM [4]: 35.4% | IC50 [5]: NI (No Inhibition (less than 50% at 1000 μM)) | Inhibition % at 1000 μM [5]: 1.0% | IC50 [6]: NI (No Inhibition (less than 50% at 1000 μM)) | Inhibition % at 1000 μM [6]: 3.9% | IC50 [7]: NI (No Inhibition (less than 50% at 1000 μM)) | Inhibition % at 1000 μM [7]: 0%

CC(=O)NC[C@H]1N[C@H](CO)[C@H](O)[C@@H]1O [D-10, 1-N-acetylamino-2,5-imino-1,2,5-trideoxy-D-altritol hydrochloride]
inhibition at 1000 µM [1, 9]: 26.1% | inhibition at 1000 µM ([1]; read-out: IC50): < 50% | IC50 [2]: 205 µM | inhibition at 1000 µM [8, 9]: 3.3% | inhibition at 1000 µM ([8]; read-out: IC50): < 50% | IC50 [3]: 65.3 µM | IC50 [4]: NI (9.24%) (No Inhibition (less than 50% at 1000 μM)) | IC50 [5]: NI (2.4%) (No Inhibition (less than 50% at 1000 μM)) | IC50 ([6]; read-out: IC50): 10 µM | IC50 [7]: NI (No Inhibition (less than 50% at 1000 μM)) | Inhibition % at 1000 μM [7]: 0%

CC(=O)NC[C@H]1N[C@@H](CO)[C@@H](O)[C@@H]1O [E-10a, 1-N-acetylamino-2,5-imino-1,2,5-trideoxy-D-glucitol hydrochloride]
inhibition at 1000 µM [1, 9]: 15.9% | inhibition at 1000 µM ([1]; read-out: IC50): < 50% | inhibition at 1000 µM [2, 9]: 0.7% | inhibition at 1000 µM ([2]; read-out: IC50): < 50% | inhibition at 1000 µM [8, 9]: 4.9% | inhibition at 1000 µM ([8]; read-out: IC50): < 50% | inhibition at 1000 µM [3, 9]: 1.4% | inhibition at 1000 µM ([3]; read-out: IC50): < 50% | IC50 [4]: NI (No Inhibition (less than 50% at 1000 μM)) | Inhibition % at 1000 μM [4]: 12.7% | IC50 [5]: NI (No Inhibition (less than 50% at 1000 μM)) | Inhibition % at 1000 μM [5]: 4.1% | IC50 ([6]; read-out: IC50): 591 µM | IC50 [7]: NI (No Inhibition (less than 50% at 1000 μM)) | Inhibition % at 1000 μM [7]: 25.8%
